Assay results as given in the supplement of paper PMC10949913.

Key:
Details in all cases: 48 h
CU-ACC2 [1] = assay: area under concentration-response curve (viability) (AUC (a.u.)); higher = less active
Summary of the method: (§1)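 Library compounds were tested at 11 concentrations against three adrenocortical carcinoma cell lines in 1,536-well plates. CellTiter-Glo luminescence was read after 48 h and normalised per plate to vehicle and empty-well controls. Only inhibitory or non-responding curve classes from fitted concentration-response curves contributed AC50 and area under the curve.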

NCI-H295R [2] = assay: as above
Summary of the method: as §1

CU-ACC1 [3] = assay: as above
Summary of the method: as §1

CU-ACC2 [4] = assay: AC50 viability; higher = less potent
Summary of the method: as §1

NCI-H295R [5] = assay: AC50 viability; higher = less potent
Summary of the method: as §1

CU-ACC1 [6] = assay: AC50 viability; higher = less potent
Summary of the method: as §1

Row | SMILES | area under concentration-response curve (CU-ACC2 [1]) | area under concentration-response curve (NCI-H295R [2]) | area under concentration-response curve (CU-ACC1 [3]) | AC50 viability (CU-ACC2 [4]) [µM] | AC50 viability (NCI-H295R [5]) [µM] | AC50 viability (CU-ACC1 [6]) [µM]
1 | COc1cc(C(=O)NC2CCN(C)CC2)c(F)cc1Nc1ncc2c(n1)N(C1CCCC1)CC(F)(F)C(=O)N2C | 393 | 400 | 412 | 14.8 | 4.68 | 16.6
2 | CCCCCCC(C)(C)C1=CC2=C([C@H]3CC(=C/CC3C(C)(C)O2)\CO)C(=C1)O (some centres not stated) | 497 | 458 | 442 | 5.9 | 4.17 | 5.9
3 | COc1cc2nccc(Oc3ccc(NC(=O)Nc4cc(C)on4)c(Cl)c3)c2cc1OC | 516 | 415 | 422 | 29.5 | 14.8 | 14.8
4 | CC[S+](=O)([O-])c1cccc(-c2cc(C(=O)NC3CCN(C)CC3)c(C)c3[nH]c4ncc(C)cc4c23)c1 | 543 | 545 | 500 | 10.5 | 20.9 | 37.2
5 | CC1(C)CC\C2=C(/O1)C3=C(C=CC=C3)C(=O)C2=O | 515 | 535 | 333 | 16.6 | 33.2 | 6.61
6 | CC1=C2N=C([NH]C2=CC(=C1)N3CCOCC3)\C4=C(NC[C@@H](O)C5=CC=CC(=C5)Cl)\C=C/NC4=O | 277 | 303 | 342 | 0.833 | 0.468 | 0.00331
7 | c1cncc(CN2CCC(n3ncc4c(N5CCOCC5)nc(-c5ccc6[nH]ccc6c5)nc43)CC2)c1 | 472 | 446 | 442 | 14.8 | 16.6 | 20.9
8 | COc1cc2c(Oc3ccc(NC(=O)C4(C(=O)Nc5ccc(F)cc5)CC4)cc3F)ccnc2cc1OCCCN1CCOCC1 | 549 | 436 | 469 | 9.34 | 6.61 | 10.5
9 | O=C1c2c(O)ccc(O)c2C(=O)c2c(NCCNCCO)ccc(NCCNCCO)c21 | 512 | 514 | 458 | 9.34 | 14.8 | 16.6
10 | COc1cc2ncnc(Nc3ccc(F)c(Cl)c3)c2cc1NC(=O)/C=C/CN1CCCCC1 | 493 | 459 | 414 | 8.33 | 6.61 | 10.5
11 | CC(C)N(CCCNC(=O)Nc1ccc(C(C)(C)C)cc1)C[C@H]1O[C@@H](n2cc(Br)c3c(N)ncnc32)[C@H](O)[C@@H]1O | 506 | 464 | 438 | 16.6 | 16.6 | 16.6
12 | CNC(=O)c1ccccc1Nc1nc(Nc2ccc(N3CCOCC3)cc2OC)ncc1Cl | 483 | 452 | 435 | 4.17 | 0.525 | 16.6
13 | CC[C@@H]1C(=O)N(C)c2cnc(Nc3ccc(C(=O)NC4CCC(N5CCN(CC6CC6)CC5)CC4)cc3OC)nc2N1C(C)C (some centres not stated) | 450 | 429 | 472 | 9.34 | 7.42 | 7.42
14 | O=C(NO)c1cnc(N2C[C@H]3C[C@@H]2CN3c2cc(C(F)(F)F)ccn2)nc1 | 538 | 488 | 385 | 10.5 | 1.66 | 7.42
15 | COCCNCCc1cccc(Nc2ncc3c(n2)-c2ccccc2[C@H](c2ccccc2F)C3)c1 | 502 | 467 | 496 | 26.3 | 8.33 | 11.8
16 | CC(C)[C@]12O[C@H]1[C@@H]3O[C@@]34[C@@]5(C)CC\C6=C(COC6=O)/[C@@H]5C[C@@H]7O[C@]47[C@@H]2O | 242 | 274 | 251 | 0.059 | 0.295 | 0.0525
17 | CC[C@@]1(O)C(=O)OC\C2=C1\C=C\3N(CC4=C3N=C5C=CC=CC5=C4)C2=O | 424 | 443 | 363 | 0.742 | 1.48 | 1.66
18 | Cc1cc(Nc2cc(NC(=O)c3c(Cl)cccc3Cl)ccn2)nc(N)n1 | 522 | 439 | 457 | 5.9 | 13.2 | 11.8
19 | COC[C@H](NC(=O)c1cnc(C)s1)C(=O)N[C@@H](COC)C(=O)N[C@@H](Cc1ccccc1)C(=O)[C@@]1(C)CO1 | 255 | 276 | 220 | 0.0833 | 0.0661 | 0.166
20 | C=CC(=O)Nc1cccc(Nc2nc(Nc3ccc(N4CCN(C(C)=O)CC4)cc3OC)ncc2C(F)(F)F)c1 | 394 | 362 | 335 | 3.72 | 5.25 | 4.68
21 | Cc1ccc(-c2cc(C(F)(F)F)nn2-c2ccc([S+](N)(=O)[O-])cc2)cc1 | 261 | 271 | 268 | 10.5 | 9.34 | 10.5
22 | COc1ccc(-c2nc(N3CCOCC3)c3sc(CN(C)c4ncc(C(=O)NO)cn4)cc3n2)cn1 | 281 | 285 | 211 | 0.186 | 0.059 | 0.0417
23 | O=C(NC1CCNCC1)c1n[nH]cc1NC(=O)c1c(Cl)cccc1Cl | 512 | 542 | 464 | 3.32 | 16.6 | 9.34
24 | Cc1n[nH]c2ccc(-c3cncc(OC[C@@H](N)Cc4c[nH]c5ccccc45)c3)cc12 | 360 | 351 | 318 | 2.09 | 2.95 | 1.66
25 | Cc1cc(Cl)ccc1OCCCC(=O)NO | 512 | 495 | 442 | 18.6 | 20.9 | 20.9
26 | N/C(=N\C(=O)c1nc(Cl)c(N)nc1N)NCc1ccccc1 | 370 | 396 | 322 | 8.33 | 11.8 | 10.5

Row | SMILES | area under concentration-response curve (CU-ACC2 [1]) | area under concentration-response curve (NCI-H295R [2]) | area under concentration-response curve (CU-ACC1 [3]) | AC50 viability (CU-ACC2 [4]) [µM] | AC50 viability (NCI-H295R [5]) [µM] | AC50 viability (CU-ACC1 [6]) [µM]
27 | CCC(C)SSc1ncc[nH]1 (configuration not stated) | 507 | 491 | 503 | 20.9 | 23.5 | 33.2
28 | CN[C@@H]1C[C@H]2O[C@@](C)([C@@H]1OC)n1c3ccccc3c3c4c(c5c6ccccc6n2c5c31)C(=O)N[C@H]4O | 209 | 269 | 301 | 0.34 | 0.959 | 0.762
29 | CC(C)(O)/C=C\C(=O)[C@](C)(O)[C@H]1[C@H](O)C[C@]2(C)[C@@H]3CC=C4[C@@H](C=C(O)C(=O)C4(C)C)[C@]3(C)C(=O)C[C@@]12C | 377 | 406 | 316 | 0.332 | 5.25 | 0.372
30 | C[C@@H]1C[C@H]2[C@@H]3\C=C(C)/C4=C/C5=C(C[C@]4(C)[C@H]3[C@@H](O)C[C@]2(C)[C@@]1(O)C(=O)CO)C=N[N]5C6=CC=CC=C6 | 563 | 474 | 435 | 23.5 | 11.8 | 26.3
31 | Cc1ccc([N+](=O)[O-])cc1[S+](=O)([O-])N(C)/N=C/c1cnc2ccc(Br)cn12 | 332 | 346 | 226 | 0.166 | 0.417 | 0.417
32 | Cc1cc(CN2CCN(c3c(Br)cnc4[nH]c(-c5ccc(N6CCN(C)CC6)cc5)nc34)CC2)no1 | 478 | 425 | 459 | 20.9 | 26.3 | 0.934
33 | N#C/C(=C1/Nc2ccccc2S1)c1ccnc(OCc2ccc(CN3CCOCC3)cc2)n1 | 426 | 429 | 434 | 18.6 | 11.8 | 4.68
34 | COC(=O)[C@]12CCC(C)(C)C[C@H]1[C@H]3C(=O)\C=C\4[C@@](C)(CC[C@H]5C(C)(C)C(=O)\C(=C/[C@]45C)C#N)[C@]3(C)CC2 | 375 | 412 | 402 | 16.6 | 13.2 | 20.9
35 | C1CCC(C(CC2CCCCN2)C2CCCCC2)CC1 (configuration not stated) | 460 | 414 | 398 | 11.8 | 9.34 | 8.33
36 | Cc1nc(Nc2n[nH]c3c2CN(C(=O)N[C@H](CN(C)C)c2ccccc2)C3(C)C)c2sccc2n1 | 442 | 462 | 433 | 5.25 | 9.34 | 9.34
37 | CNc1nccc(-c2cccnc2Oc2cc(C(=O)Nc3cccc(C(F)(F)F)c3)ccc2C)n1 | 494 | 465 | 461 | 18.6 | 18.6 | 14.8
38 | C=CCNC1=C2C[C@@H](C)C[C@H](OC)[C@H](O)[C@@H](C)/C=C(\C)[C@H](OC(N)=O)[C@@H](OC)/C=C\C=C(/C)C(=O)NC(=CC1=O)C2=O | 418 | 515 | 433 | 13.2 | 37.2 | 10.5
39 | CC1(C)CC(=O)c2c(C(F)(F)F)nn(-c3ccc(C(N)=O)c(NC4CCC(O)CC4)c3)c2C1 (configuration not stated) | 416 | 455 | 359 | 0.295 | 0.833 | 1.05
40 | Cc1ncc(-c2ccnc(Nc3ccc([S+](C)(=O)[O-])cc3)n2)n1C(C)C | 236 | 307 | 286 | 0.332 | 2.95 | 0.742
41 | CC1(C)OC/2=C(\[C@H](NCC3=CC=CC=C3)[C@@H]1O)C(=O)C4=CC=CC=C4C2=O | 368 | 403 | 381 | 18.6 | 1.86 | 2.35
42 | CCOc1cc(C(=O)N2CCC(N3CCN(C)CC3)CC2)ccc1Nc1ncc2c(n1)N(C1CCCC1)c1ccccc1C(=O)N2C | 494 | 448 | 423 | 18.6 | 18.6 | 18.6
43 | Fc1cccc(-n2cnc3c(NCc4nc5ccc(F)c(F)c5[nH]4)nc(N4CCOCC4)nc32)c1 | 371 | 394 | 367 | 0.742 | 1.05 | 0.661
44 | Cc1cc(Nc2cc(N3CCN(C)CC3)nc(/C=C/c3ccccc3)n2)n[nH]1 | 369 | 414 | 401 | 13.2 | 6.61 | 11.8
45 | CCOC(=O)CCNc1cc(N2CCc3ccccc3CC2)nc(-c2ccccn2)n1 | 534 | 444 | 384 | 16.6 | 3.72 | 3.32
46 | C=CC(=O)Nc1cccc(Oc2nc(Nc3ccc(N4CCN(C)CC4)cc3)nc3ccsc23)c1 | 330 | 337 | 277 | 8.33 | 5.9 | 5.9
47 | C[C@@]12O[C@@H](C[C@]1(O)CO)n1c3ccccc3c3c4c(c5c6ccccc6n2c5c31)CNC4=O | 346 | 407 | 380 | 9.34 | 14.8 | 6.61
48 | C=CCNc1c(O)cc2c(O)c1C[C@@H](C)C[C@H](OC)[C@H](O)[C@@H](C)/C=C(/C)[C@H](OC(N)=O)[C@@H](OC)/C=C\C=C(\C)C(=O)N2 | 335 | 419 | 335 | 0.525 | 14.8 | 2.95
49 | O=C(/C=C\n1cnc(-c2cc(C(F)(F)F)cc(C(F)(F)F)c2)n1)NNc1cnccn1 | 489 | 469 | 319 | 11.8 | 13.2 | 20.9
50 | CC(C)C1=C(O)C=C(O)C(=C1)C/2=N/NC(=O)N2C3=CC4=C(C=C3)[N](C)C=C4 | 309 | 416 | 322 | 0.0186 | 0.132 | 0.0934
51 | C[C@@H]1CN[C@H]2[C@@H](C)[C@@]3(CC[C@H]4[C@@H]5CC[C@@H]6C[C@@H](CC[C@]6(C)[C@H]5C\C4=C(C)\C3)N[S+](C)([O-])=O)O[C@@H]2C1 | 539 | 504 | 467 | 20.9 | 14.8 | 16.6
52 | CNCCn1c(=O)c2cc(OC)c(OC)cc2c2cnc3cc4c(cc3c21)OCO4 | 537 | 553 | 422 | 0.135 | 0.152 | 0.0959
